Data reported in patent US11382328B2, “Rapid drug discovery methods for pathogen inactivation” (priority 2019, dated 2022).
Values joined by “and” are separate entries in the source; they are usually repeats but may differ in a detail not shown here. Equal entries are not always repeated.

Test system: E. coli strain W3110
Test: Synergy assays: Biolog chemical sensitivity panels with Group IB metal, coefficient of drug interaction (CDI) from relative growth
Type: cell-based
Settings: for CDI (coefficient of drug interaction), copper mixed with biocide: Copper (mM) section; for CDI (coefficient of drug interaction), gold + biocide: Gold (μM)
[1] = Silver 0.5 μM, 2nd of four biocide concentrations, E. coli
[2] = Silver 0.5 μM, 4th of four biocide concentrations, E. coli
[3] = Silver 1.0 μM, 2nd of four biocide concentrations, E. coli
[4] = Silver 1.0 μM, 3rd of four biocide concentrations, E. coli
[5] = Silver 1.0 μM, 4th of four biocide concentrations, E. coli
[6] = Silver 5.0 μM, 2nd of four biocide concentrations, E. coli
[7] = Silver 5.0 μM, 3rd of four biocide concentrations, E. coli
[8] = Silver 5.0 μM, 4th of four biocide concentrations, E. coli
[9] = Gold section of Table 5, first of three gold concentrations (μM, value not given), biocide concentration 1 of 4
[10] = Gold section of Table 5, first of three gold concentrations (μM, value not given), biocide concentration 4 of 4
[11] = Gold section of Table 5, second of three gold concentrations (μM, value not given), biocide concentration 1 of 4
[12] = Gold section of Table 5, second of three gold concentrations (μM, value not given), biocide concentration 2 of 4
[13] = Gold section of Table 5, second of three gold concentrations (μM, value not given), biocide concentration 3 of 4
[14] = Gold section of Table 5, second of three gold concentrations (μM, value not given), biocide concentration 4 of 4
[15] = Gold section of Table 5, third of three gold concentrations (μM, value not given), biocide concentration 1 of 4
[16] = Gold section of Table 5, third of three gold concentrations (μM, value not given), biocide concentration 2 of 4
[17] = Gold section of Table 5, third of three gold concentrations (μM, value not given), biocide concentration 3 of 4
[18] = Gold section of Table 5, third of three gold concentrations (μM, value not given), biocide concentration 4 of 4
[19] = Copper (mM), 1st of 3 copper concentrations (head line not shown), biocide concentration 1 of 4, E. coli
[20] = Copper (mM), 1st of 3 copper concentrations (head line not shown), biocide concentration 3 of 4, E. coli
[21] = Copper (mM), 1st of 3 copper concentrations (head line not shown), biocide concentration 4 of 4, E. coli
[22] = Copper (mM), 2nd of 3 copper concentrations (head line not shown), biocide concentration 1 of 4, E. coli
[23] = Copper (mM), 2nd of 3 copper concentrations (head line not shown), biocide concentration 3 of 4, E. coli
[24] = Copper (mM), 2nd of 3 copper concentrations (head line not shown), biocide concentration 4 of 4, E. coli
[25] = Copper (mM), 3rd of 3 copper concentrations (head line not shown), biocide concentration 1 of 4, E. coli
[26] = Copper (mM), 3rd of 3 copper concentrations (head line not shown), biocide concentration 3 of 4, E. coli
[27] = Copper (mM), 3rd of 3 copper concentrations (head line not shown), biocide concentration 4 of 4, E. coli
[28] = Silver 0.5 μM, biocide concentration 1 of 4
[29] = Silver 0.5 μM, biocide concentration 4 of 4
[30] = Silver 1.0 μM, biocide concentration 1 of 4
[31] = Silver 1.0 μM, biocide concentration 4 of 4
[32] = Silver 5.0 μM, biocide concentration 4 of 4

With `CCCCc1ccc(C(=O)O)nc1` [fusaric acid] the CDI (Copper 0.1 mM, biocide concentration 3 of 4) was “Tox”, the CDI (Copper 0.1 mM, biocide concentration 4 of 4) was “Tox” and the CDI (Copper 0.5 mM, biocide concentration 3 of 4) was “Tox”. For the same molecule, the CDI (Copper 0.5 mM, biocide concentration 4 of 4) was “Tox”, the CDI (Copper 1.0 mM, biocide concentration 3 of 4) was “Tox” and the CDI (Copper 1.0 mM, biocide concentration 4 of 4) was “Tox”. For the same molecule, the “CDI (coefficient of drug interaction)” value (Gold 5 μM, biocide concentration 3 of 4, E. coli) was “Tox”, the “CDI (coefficient of drug interaction)” value (Gold 5 μM, biocide concentration 4 of 4, E. coli) was “Tox” and the “CDI (coefficient of drug interaction)” value (Gold 25 μM, biocide concentration 3 of 4, E. coli) was “Tox”. The “CDI (coefficient of drug interaction)” value (Gold 25 μM, biocide concentration 4 of 4, E. coli) was “Tox”, the “CDI (coefficient of drug interaction), silver + biocide” value (from here on “CDI … silver + biocide”) [1] was “Tox” and the “CDI … silver + biocide” value (Silver 0.5 μM, 3rd of four biocide concentrations, E. coli) was “Tox”. For the same molecule, the “CDI … silver + biocide” value [2] was “Tox”, the “CDI … silver + biocide” value [3] was “Tox” and the “CDI … silver + biocide” value [4] was “Tox”. For the same molecule, the “CDI … silver + biocide” value [5] was “Tox”, the “CDI … silver + biocide” value [6] was “Tox” and the “CDI … silver + biocide” value [7] was “Tox”. For the same molecule, the “CDI … silver + biocide” value [8] was “Tox”, the “CDI (coefficient of drug interaction)” value ([…], biocide concentration 3 of 4, E. coli) was “Tox” and the “CDI (coefficient of drug interaction)” value ([…], biocide concentration 4 of 4, E. coli) was “Tox”.

In the case of Niaproof, the “CDI (coefficient of drug interaction), copper mixed with biocide” value (“CDI … with biocide” for short) (1st of 3 copper concentrations (value not shown), 1st of four biocide concentrations) is reported as 1.26, the “CDI … with biocide” value (1st of 3 copper concentrations (value not shown), 2nd of four biocide concentrations) is reported as 1.45 and the “CDI … with biocide” value (1st of 3 copper concentrations (value not shown), 3rd of four biocide concentrations) is reported as 0.74. The “CDI … with biocide” value (1st of 3 copper concentrations (value not shown), 4th of four biocide concentrations) was 0.91, the “CDI … with biocide” value (2nd of 3 copper concentrations (value not shown), 1st of four biocide concentrations) was 1.09 and the “CDI … with biocide” value (2nd of 3 copper concentrations (value not shown), 2nd of four biocide concentrations) was 1.20. The “CDI … with biocide” value (2nd of 3 copper concentrations (value not shown), 3rd of four biocide concentrations) was 0.43, the “CDI … with biocide” value (2nd of 3 copper concentrations (value not shown), 4th of four biocide concentrations) was 0.46 and the “CDI … with biocide” value (3rd of 3 copper concentrations (value not shown), 1st of four biocide concentrations) was 1.19. The “CDI … with biocide” value (3rd of 3 copper concentrations (value not shown), 2nd of four biocide concentrations) was 1.00, the “CDI … with biocide” value (3rd of 3 copper concentrations (value not shown), 3rd of four biocide concentrations) was 0.73 and the “CDI … with biocide” value (3rd of 3 copper concentrations (value not shown), 4th of four biocide concentrations) was 1.32. The “CDI (coefficient of drug interaction)” value [9] was 1.32, the “CDI (coefficient of drug interaction)” value [10] was 1.27 and the “CDI (coefficient of drug interaction)” value [11] was 1.21. For the same molecule, the “CDI (coefficient of drug interaction)” value [12] was 1.03, the “CDI (coefficient of drug interaction)” value [13] was 1.09 and the “CDI (coefficient of drug interaction)” value [14] was 1.15. The “CDI (coefficient of drug interaction)” value [15] was 1.35, the “CDI (coefficient of drug interaction)” value [16] was 1.20 and the “CDI (coefficient of drug interaction)” value [17] was 0.95. The “CDI (coefficient of drug interaction)” value [18] was 1.51, the “CDI … silver + biocide” value (Silver 0.5 μM, 1st of four biocide concentrations, E. coli) was 1.07 and the “CDI … silver + biocide” value [1] was 1.17. For the same molecule, the “CDI … silver + biocide” value [2] was 1.74, the “CDI … silver + biocide” value [3] was 1.17 and the “CDI … silver + biocide” value [4] was 0.99. For the same molecule, the “CDI … silver + biocide” value [5] was 1.45, the “CDI … silver + biocide” value (Silver 5.0 μM, 1st of four biocide concentrations, E. coli) was 0.89 and the “CDI … silver + biocide” value [6] was 0.99. For the same molecule, the “CDI … silver + biocide” value [7] was 0.78 and the “CDI … silver + biocide” value [8] was 0.55.

In the case of `CN(CC[C@H](N)CC(=O)N[C@H]1C=C[C@H](n2ccc(N)nc2=O)O[C@@H]1C(=O)O)C(=N)N` [blasticidin S], the “CDI (coefficient of drug interaction)” value [19] is reported as 1.05, the “CDI (coefficient of drug interaction)” value (Copper (mM), 1st of 3 copper concentrations (head line not shown), biocide concentration 2 of 4, E. coli) is reported as 1.14 and the “CDI (coefficient of drug interaction)” value [20] is reported as 0.95. The “CDI (coefficient of drug interaction)” value [21] was “Tox”, the “CDI (coefficient of drug interaction)” value [22] was 0.90 and the “CDI (coefficient of drug interaction)” value (Copper (mM), 2nd of 3 copper concentrations (head line not shown), biocide concentration 2 of 4, E. coli) was 0.96. For the same molecule, the “CDI (coefficient of drug interaction)” value [23] was “Tox”, the “CDI (coefficient of drug interaction)” value [24] was “Tox” and the “CDI (coefficient of drug interaction)” value [25] was 0.71. The “CDI (coefficient of drug interaction)” value (Copper (mM), 3rd of 3 copper concentrations (head line not shown), biocide concentration 2 of 4, E. coli) was 0.65, the “CDI (coefficient of drug interaction)” value [26] was 0.49 and the “CDI (coefficient of drug interaction)” value [27] was “Tox”. The “CDI (coefficient of drug interaction)” value [9] was 1.05, the “CDI (coefficient of drug interaction)” value (Gold section of Table 5, first of three gold concentrations (μM, value not given), biocide concentration 2 of 4) was 0.95 and the “CDI (coefficient of drug interaction)” value (Gold section of Table 5, first of three gold concentrations (μM, value not given), biocide concentration 3 of 4) was 0.97. The “CDI (coefficient of drug interaction)” value [10] was “Tox”, the “CDI (coefficient of drug interaction)” value [11] was 1.06 and the “CDI (coefficient of drug interaction)” value [12] was 1.08. The “CDI (coefficient of drug interaction)” value [13] was 1.11, the “CDI (coefficient of drug interaction)” value [14] was “Tox” and the “CDI (coefficient of drug interaction)” value [15] was 1.09. The “CDI (coefficient of drug interaction)” value [16] was 1.06, the “CDI (coefficient of drug interaction)” value [17] was 1.11 and the “CDI (coefficient of drug interaction)” value [18] was “Tox”. The CDI [28] was 1.04, the CDI (Silver 0.5 μM, biocide concentration 2 of 4) was 0.90 and the CDI (Silver 0.5 μM, biocide concentration 3 of 4) was 0.92. The CDI [29] was “Tox”, the CDI [30] was 1.01 and the CDI (Silver 1.0 μM, biocide concentration 2 of 4) was 1.02. For the same molecule, the CDI (Silver 1.0 μM, biocide concentration 3 of 4) was “Tox”, the CDI [31] was “Tox” and the CDI (Silver 5.0 μM, biocide concentration 1 of 4) was 1.52. The CDI (Silver 5.0 μM, biocide concentration 2 of 4) was 1.40, the CDI (Silver 5.0 μM, biocide concentration 3 of 4) was “Tox” and the CDI [32] was “Tox”.

With polymyxin B the “CDI (coefficient of drug interaction)” value [19] was 0.90, the “CDI (coefficient of drug interaction)” value [20] was “Tox” and the “CDI (coefficient of drug interaction)” value [21] was “Tox”. For the same molecule, the “CDI (coefficient of drug interaction)” value [22] was 0.97 and 0.75, the “CDI (coefficient of drug interaction)” value [23] was “Tox” and the “CDI (coefficient of drug interaction)” value [24] was “Tox”. The “CDI (coefficient of drug interaction)” value [25] was 0.82 and 0.56, the “CDI (coefficient of drug interaction)” value [26] was “Tox” and the “CDI (coefficient of drug interaction)” value [27] was “Tox”. For the same molecule, the “CDI (coefficient of drug interaction), gold + biocide” value (“CDI … gold + biocide” below) (first of 3 gold concentrations, biocide concentration 1 of 4) was 1.07 and 0.97, the “CDI … gold + biocide” value (first of 3 gold concentrations, biocide concentration 4 of 4) was “Tox” and the “CDI … gold + biocide” value (second of 3 gold concentrations, biocide concentration 1 of 4) was 1.10 and 0.99. The “CDI … gold + biocide” value (second of 3 gold concentrations, biocide concentration 4 of 4) was “Tox”, the “CDI … gold + biocide” value (third of 3 gold concentrations, biocide concentration 1 of 4) was 1.00 and 0.92 and the “CDI … gold + biocide” value (third of 3 gold concentrations, biocide concentration 4 of 4) was “Tox”. For the same molecule, the CDI [28] was 1.37 and 0.79, the CDI [29] was “Tox” and the CDI [30] was 1.23 and 0.85. For the same molecule, the CDI [31] was “Tox” and the CDI [32] was “Tox”.

With `O=C1CN(/N=C/c2ccc([N+](=O)[O-])o2)C(=O)N1` [nitrofurantoin] the “CDI (coefficient of drug interaction)” value (Gold 50 μM, biocide concentration 4 of 4, E. coli) was “Tox”.
